Columns and labels:
Format in all cases: cell-based
[1] = system: Pichia membranaefaciens (DSM 70369); test: Growth inhibition in sucrose solution pH 5, OD after 21 days; details: for Antifungal activity: pH 5, 21 days at 25° C.; for concentration at which active as single ingredient: sucrose solution pH 5, 21 days, tested at 25, 50, 75 ppm
From the text: (§1) The term “effective” when used to describe the capacity of a composition to inhibit growth of a yeast or mould strain is defined as the ability of such composition to inhibit growth of the strain in a growth medium consisting of a 105 g/L sucrose solution with an initial inoculum of 10^2-10^3 cfu/mL of such yeast or mould strain, so that the average optical density of the growth medium, as measured at 380 nm for yeast strains and at 500 nm for mould strains, is maintained below 0.2 after 21 days of culture at 25° C. under aerobic conditions. The growth medium of which the optical density is measured consists of the growth medium as it is at the end of the 21 days growth period.
(§2) For the purposes of the present invention, growth inhibition activity of a given compound against one of the above mentioned strains is measured as follows:
(§3) A 105 g/L solution of sucrose in water is prepared. Preferably, the sucrose solution is at pH 3±0.2 or at pH 5±0.2, in which case the sucrose solution is more preferably autoclaved at 121° C. for 15 minutes and the pH is re-checked to ensure it remains within the required range.
(§4) Test samples are prepared in a microtiter plate comprising 100 μL of one of the sucrose solutions prepared above, together with an initial inoculum of the fungal strain of which growth is intended to be inhibited, so as to achieve a microbial level comprised between 10^2 and 10^3 cfu/mL.
(§5) The composition of which the antifungal activity is intended to be evaluated is then added to the microtiter plate. Dilutions of the tested composition in each test sample are prepared to afford the desired final concentration. The microtiter plates are then stored in a standard 25° C. incubator under aerobic conditions.
(§6) The optical density (OD) of each sample is measured just after addition of the composition (control) and after 21 days of incubation. The OD is measured at 380 nm for yeast strains and at 500 nm for mould strains.
(§7) All tests are done in triplicate to ensure statistical relevance of the results obtained.
(§8) Growth inhibition of a particular strain by an ingredient at a particular concentration is given if the OD measured after 21 days of culture in these conditions is below 0.2.
(§9) A 105 g/L solution of sucrose in water at pH 5±0.2 was prepared. The sucrose solution was autoclaved at 121° C. for 15 minutes and the pH was re-checked to ensure it remained within the range.
(§10) Test samples were then prepared in microtiter plates. An amount of 100 μL of sucrose solution prepared above was mixed with an inoculum of 20 μL of one fungal strain, so as to achieve a microbial level comprised between 10^2 and 10^3 cfu/mL.
(§11) Composition A was then added to the microtiter plate. Dilutions were prepared in the microtiter plate for each mixture of sucrose solution and inoculum to afford final concentrations of 75 ppm and 125 ppm of Composition A. One well for each mixture of sucrose solution and inoculum was kept free of Composition A, to serve as a control.
(§12) The microtiter plates were then stored in a standard 25° C. incubator under aerobic conditions.
(§13) The optical density (OD) of each sample was measured after 21 days of incubation using a Bio-Tek Synergy™ HT Multi-Mode Microplate Reader (from Labtech International, UK). The wavelength was set to 380 nm for yeast strains and to 500 nm for mould strains.
(§14) All tests were done in triplicate to ensure statistical relevance of the results obtained.
(§15) 2-Methylhexanoic acid, geranic acid and sorbic acid were separately tested for their antifungal properties using the method described in Example 1 for evaluation of Composition A, except that dilutions were prepared in the microtiter plate for each mixture of sucrose solution and inoculum to afford final concentrations of 25 ppm, 50 ppm and 75 ppm of the tested ingredient. […]

[2] = system: Pichia anomala (DSM 70783); test: as above; details: for Antifungal activity: pH 5, 21 days at 25° C.; for concentration at which active as single ingredient: sucrose solution pH 5, 21 days, tested at 25, 50, 75 ppm
From the text: as §1, §2, §3, §4, §5, §6, §7, §8, §9, §10, §11, §12, §13, §14, §15

each of the tested fungi = test: Growth inhibition, summary over all tested strains; details: even at 75 ppm; strains of Tables 3-4 or 9-10
Experimental: as §9, §10, §11, §12, §13, §14
2-Methylhexanoic acid, geranic acid and sorbic acid were separately tested for their antifungal properties using the method described in Example 1 for evaluation of Composition A, except that dilutions were prepared in the microtiter plate for each mixture of sucrose solution and inoculum to afford final concentrations of 25 ppm, 50 ppm and 75 ppm of the tested ingredient.
Composition B was then added to the microtiter plate.

[3] = system: Zygosaccharomyces bailii (DSM 70492); test: Growth inhibition in sucrose solution pH 5, OD after 21 days; details: for Antifungal activity: pH 5, 21 days at 25° C., OD 380 nm
From the text: The term “effective” when used to describe the capacity of a composition to inhibit growth of a yeast or mould strain is defined as the ability of such composition to inhibit growth of the strain in a growth medium consisting of a 105 g/L sucrose solution with an initial inoculum of 10^2-10^3 cfu/mL of such yeast or mould strain, so that the average optical density of the growth medium, as measured at 380 nm for yeast strains and at 500 nm for mould strains, is maintained below 0.2 after 21 days of culture at 25° C. under aerobic conditions. The growth medium of which the optical density is measured consists of the growth medium as it is at the end of the 21 days growth period. It therefore consists of the growth medium (sucrose solution at 105 g/L), together with the organisms which were able to grow during the 21 days culture period and the composition of the invention. For the purposes of the present invention, growth inhibition activity of a given compound against one of the above mentioned strains is measured as follows: A 105 g/L solution of sucrose in water is prepared. Preferably, the sucrose solution is at pH 3±0.2 or at pH 5±0.2, in which case the sucrose solution is more preferably autoclaved at 121° C. for 15 minutes and the pH is re-checked to ensure it remains within the required range. Test samples are prepared in a microtiter plate comprising 100 μL of one of the sucrose solutions prepared above, together with an initial inoculum of the fungal strain of which growth is intended to be inhibited, so as to achieve a microbial level comprised between 10^2 and 10^3 cfu/mL. The composition of which the antifungal activity is intended to be evaluated is then added to the microtiter plate. […] The microtiter plates are then stored in a standard 25° C. incubator under aerobic conditions. The optical density (OD) of each sample is measured just after addition of the composition (control) and after 21 days of incubation. The OD is measured at 380 nm for yeast strains and at 500 nm for mould strains. All tests are done in triplicate to ensure statistical relevance of the results obtained. Growth inhibition of a particular strain by an ingredient at a particular concentration is given if the OD measured after 21 days of culture in these conditions is below 0.2. A 105 g/L solution of sucrose in water at pH 5±0.2 was prepared. The sucrose solution was autoclaved at 121° C. for 15 minutes and the pH was re-checked to ensure it remained within the range. Test samples were then prepared in microtiter plates. […] Composition A was then added to the microtiter plate. […] One well for each mixture of sucrose solution and inoculum was kept free of Composition A, to serve as a control. The microtiter plates were then stored in a standard 25° C. incubator under aerobic conditions. The optical density (OD) of each sample was measured after 21 days of incubation using a Bio-Tek Synergy™ HT Multi-Mode Microplate Reader (from Labtech International, UK). The wavelength was set to 380 nm for yeast strains and to 500 nm for mould strains. All tests were done in triplicate to ensure statistical relevance of the results obtained.

[4] = 75 ppm, OD 380 nm (Examples 3-4)

SMILES | Antifungal activity ([1]; 25 ppm, OD 380 nm (Example 4)) | Antifungal activity ([1]; 50 ppm, OD 380 nm (Example 4)) | Antifungal activity [1, 4] | concentration at which active as single ingredient [1] [ppm] | Antifungal activity ([2]; 25 ppm, OD 380 nm (Example 4)) | Antifungal activity ([2]; 50 ppm, OD 380 nm (Example 4)) | Antifungal activity [2, 4] | concentration at which active as single ingredient [2] [ppm] | antifungal activity as single ingredient against tested strains (each of the tested fungi) | Antifungal activity ([1]; 25 ppm, OD 380 nm) | Antifungal activity ([1]; 50 ppm, OD 380 nm) | Antifungal activity ([1]; 75 ppm, OD 380 nm) | Antifungal activity ([2]; 25 ppm, OD 380 nm) | Antifungal activity ([2]; 50 ppm, OD 380 nm) | Antifungal activity ([2]; 75 ppm, OD 380 nm) | Antifungal activity ([3]; 25 ppm) | Antifungal activity ([3]; 50 ppm) | Antifungal activity ([3]; 75 ppm) | concentration at which active as single ingredient ([3]; sucrose solution pH 5, 21 days, tested at 25, 50, 75 ppm) [ppm]
O=C(O)c1ccccc1 [benzoic acid] | I (Letter I (for Inactive) is used when the measured OD was of at least 0.2) | I (Letter I (for Inactive) is used when the measured OD was of at least 0.2) | A (Letter A (for Active) is indicated when the measured OD was below 0.2) | 75 | I (Letter I (for Inactive) is used when the measured OD was of at least 0.2) | A (Letter A (for Active) is indicated when the measured OD was below 0.2) | A (Letter A (for Active) is indicated when the measured OD was below 0.2) | 50 |  |  |  |  |  |  |  |  |  |  | 
CCC(=O)O [Propanoic acid] | I (Letter I (for Inactive) is used when the measured OD was of at least 0.2) | I (Letter I (for Inactive) is used when the measured OD was of at least 0.2) | I (Letter I (for Inactive) is used when the measured OD was of at least 0.2) |  | I (Letter I (for Inactive) is used when the measured OD was of at least 0.2) | I (Letter I (for Inactive) is used when the measured OD was of at least 0.2) | I (Letter I (for Inactive) is used when the measured OD was of at least 0.2) |  | inactive |  |  |  |  |  |  |  |  |  | 
CC(C)=CCC/C(C)=C/C(=O)O [Geranic acid] |  |  |  |  |  |  |  |  | inactive | I (Letter I (for Inactive) is used when the measured OD was of at least 0.2) | I (Letter I (for Inactive) is used when the measured OD was of at least 0.2) | I (Letter I (for Inactive) is used when the measured OD was of at least 0.2) | I (Letter I (for Inactive) is used when the measured OD was of at least 0.2) | I (Letter I (for Inactive) is used when the measured OD was of at least 0.2) | I (Letter I (for Inactive) is used when the measured OD was of at least 0.2) | I (Letter I (for Inactive) is used when the measured OD was of at least 0.2) | I (Letter I (for Inactive) is used when the measured OD was of at least 0.2) | I (Letter I (for Inactive) is used when the measured OD was of at least 0.2) | 
C/C=C/C=C/C(=O)O [Sorbic acid] |  |  |  | 75 |  |  |  | 50 |  | I (Letter I (for Inactive) is used when the measured OD was of at least 0.2) | I (Letter I (for Inactive) is used when the measured OD was of at least 0.2) | A (Letter A (for Active) is indicated when the measured OD was below 0.2) | I (Letter I (for Inactive) is used when the measured OD was of at least 0.2) | A (Letter A (for Active) is indicated when the measured OD was below 0.2) | A (Letter A (for Active) is indicated when the measured OD was below 0.2) | I (Letter I (for Inactive) is used when the measured OD was of at least 0.2) | I (Letter I (for Inactive) is used when the measured OD was of at least 0.2) | A (Letter A (for Active) is indicated when the measured OD was below 0.2) | 75
CCCCC(C)C(=O)O (centres unmarked) [2-Methylhexanoic acid] |  |  |  |  |  |  |  |  | inactive | I (Letter I (for Inactive) is used when the measured OD was of at least 0.2) | I (Letter I (for Inactive) is used when the measured OD was of at least 0.2) | I (Letter I (for Inactive) is used when the measured OD was of at least 0.2) | I (Letter I (for Inactive) is used when the measured OD was of at least 0.2) | I (Letter I (for Inactive) is used when the measured OD was of at least 0.2) | I (Letter I (for Inactive) is used when the measured OD was of at least 0.2) | I (Letter I (for Inactive) is used when the measured OD was of at least 0.2) | I (Letter I (for Inactive) is used when the measured OD was of at least 0.2) | I (Letter I (for Inactive) is used when the measured OD was of at least 0.2) | 
